Article PMC11070402, “New antiproliferative 3-substituted oxindoles inhibiting EGFR/VEGFR-2 and tubulin polymerization” (Molecular Diversity, 2023)
Like-named read-outs stand apart in the source and are kept apart here.

Columns and labels:
K-562 = assay: NCI one-dose assay, K-562; assay type: cell-based; conditions: Homo sapiens, K562; K-562 (Leukemia), 10 uM single dose; read-out: Growth inhibition %
Experimental: (§1) All novel scaffolds 6a–j were carefully selected by the National Cancer Institute (NCI), Bethesda, USA, to elucidate their cytotoxic activity versus 60 human cancer cell lines at 10 µM as a single-dose concentration after a 48 h incubation period.
(§2) National Cancer Institution selected all the synthesized 6a–j (NCI), Bethesda, USA, for in vitro one-dose antitumor assay. The methodology protocol for the NCI anticancer screening was reported in detail elsewhere (http://www.dtp.nci.nih.gov). The anticancer assay was performed in full NCI 60 cell lines extracted from nine tumor cell lines, including leukemia, melanoma, lung, colon, CNS, ovarian, renal, prostate, and breast cancer cell lines.

[1] = system: 60 human cancer cell lines; assay: NCI one-dose assay against sixty NCI cancer cell lines; assay type: cell-based
Experimental: as §1, §2

MCF-7 = assay: NCI one-dose assay, MCF-7; assay type: cell-based, human; conditions: Homo sapiens, MCF7, MCF7 (Breast Cancer), 10 uM single dose; read-out: Growth inhibition %
Experimental: as §1, §2

LOX IMVI = assay: NCI one-dose assay, LOX IMVI; assay type: cell-based; conditions: Homo sapiens; LOX IMVI (Melanoma), 10 uM single dose; read-out: Growth inhibition %
Experimental: as §1, §2

UO-31 = assay: NCI one-dose assay, UO-31; assay type: cell-based; conditions: Homo sapiens; UO-31 (Renal Cancer), 10 uM single dose; read-out: Growth inhibition %
Experimental: as §1, §2

MOLT-4 = assay: NCI one-dose assay, MOLT-4; assay type: cell-based; conditions: Homo sapiens; MOLT-4 (Leukemia), 10 uM single dose; read-out: Growth inhibition %
Experimental: as §1, §2

[2] = system: SNB-75 cells (CNS cancer cell line); assay: NCI one-dose assay, SNB-75; assay type: cell-based; conditions: Homo sapiens
Experimental: as §1, §2

[3] = system: NCI/ADR-RES (ovarian cancer cell line); assay: NCI one-dose assay, NCI/ADR-RES; assay type: cell-based; conditions: Homo sapiens; NCI/ADR-RES (Ovarian Cancer), 10 uM single dose; read-out: Growth inhibition %
Experimental: as §1, §2

T-47D = assay: NCI one-dose assay, T-47D; assay type: cell-based; conditions: Homo sapiens, T47D; T-47D (Breast Cancer), 10 uM single dose; read-out: Growth inhibition %
Experimental: as §1, §2

SR = assay: NCI one-dose assay, SR; assay type: cell-based; conditions: Homo sapiens; SR (Leukemia), 10 uM single dose; read-out: Growth inhibition %
Experimental: as §1, §2

[4] = ACHN (Renal Cancer), 10 uM single dose, read-out: Growth inhibition %
[5] = CAKI-1 (Renal Cancer), 10 uM single dose, read-out: Growth inhibition %
[6] = HCT-15 (Colon Cancer), 10 uM single dose, read-out: Growth inhibition %
[7] = HCT-116 (Colon Cancer), 10 uM single dose, read-out: Growth inhibition %
[8] = NCI-H226 (Non-Small Cell Lung Cancer), 10 uM single dose, read-out: Growth inhibition %
[9] = NCI-H322M (Non-Small Cell Lung Cancer), 10 uM single dose, read-out: Growth inhibition %
[10] = PC-3 (Prostate Cancer), 10 uM single dose, read-out: Growth inhibition %
[11] = UACC-62 (Melanoma), 10 uM single dose, read-out: Growth inhibition %
[12] = SNB-75 (CNS Cancer), 10 uM single dose, read-out: Growth inhibition %
[13] = HS 578T (Breast Cancer), 10 uM single dose, read-out: Growth inhibition %
[14] = IGROV-1, IGROV1 (Ovarian Cancer), 10 uM single dose, read-out: Growth inhibition %
[15] = M14 (Melanoma), 10 uM single dose, read-out: Growth inhibition %
[16] = NCI-H522 (Non-Small Cell Lung Cancer), 10 uM single dose, read-out: Growth inhibition %
[17] = OVCAR-3 (Ovarian Cancer), 10 uM single dose, read-out: Growth inhibition %
[18] = SF-268 (CNS Cancer), 10 uM single dose, read-out: Growth inhibition %
[19] = SF-539 (CNS Cancer), 10 uM single dose, read-out: Growth inhibition %
[20] = HOP-62 (Non-Small Cell Lung Cancer), 10 uM single dose, read-out: Growth inhibition %

Structure (SMILES)	inhibition at 10 µM (K-562) [%]	inhibition at 10 µM [1, 4] [%]	inhibition at 10 µM [1, 5] [%]	inhibition at 10 µM [1, 6] [%]	inhibition at 10 µM [1, 7] [%]	inhibition at 10 µM [1, 8] [%]	inhibition at 10 µM [1, 9] [%]	inhibition at 10 µM [1, 10] [%]	inhibition at 10 µM [1, 11] [%]	inhibition at 10 µM (MCF-7) [%]	inhibition at 10 µM (LOX IMVI) [%]	inhibition at 10 µM (UO-31) [%]	melting point [°C]	inhibition at 10 µM (MOLT-4) [%]	inhibition at 10 µM [2, 12] [%]	inhibition at 10 µM [1, 13] [%]	inhibition at 10 µM [1, 14] [%]	inhibition at 10 µM [1, 15] [%]	inhibition at 10 µM [1, 16] [%]	inhibition at 10 µM [1, 18] [%]	also measured
COc1ccc2c(c1)C(=Cc1ccc(OCC(=O)c3ccccc3)cc1)C(=O)N2 [Compound 6e, 5-Methoxy-3-{4-[2-oxo-2-phenylethoxy]benzylidene}indolin-2-one]	19.5	11.2	19.8	10.3	12	11.6	12.4	14.8	24.7	20.2	19.5	29.6	196 to 198	11.6							
O=C1Nc2ccccc2C1=Cc1ccc(OCC(=O)c2ccccc2)cc1 [Compound 6a, 3-{4-[2-Oxo-2-phenylethoxy]benzylidene}indolin-2-one]	11.1		13.1			11		17.1	12.9	11.3		30.5	219 to 221		26.2						inhibition at 10 µM [3]: 1.84%
O=C1Nc2cc(Cl)ccc2C1=Cc1ccc(OCC(=O)c2ccccc2)cc1 [Compound 6c, 6-Chloro-3-{4-[2-oxo-2-phenylethoxy]benzylidene}indolin-2-one]	18	15.9	26.4	23.5	12.2	13.2	11.6	28.5	27.9	38.2	16.5	35	199 to 201			12.6	20.1	11.1	11.7	11.4	inhibition at 10 µM ([2]; SNB-75, 10 µM single dose, 48 h incubation, read-out: cell growth inhibition % (GI %)): 41.2%; inhibition at 10 µM [1, 17]: 10.8%; inhibition at 10 µM ([1]; RXF 393 (Renal Cancer), 10 uM single dose, read-out: Growth inhibition %): 16.4%; inhibition at 10 µM [1, 19]: 13.8%; inhibition at 10 µM (T-47D): 16.3%
O=C1Nc2ccc(Cl)cc2C1=Cc1ccc(OCC(=O)c2ccccc2)cc1 [Compound 6b, 5-Chloro-3-{4-[2-oxo-2 phenylethoxy]benzylidene}indolin-2-one]	23.5		31.9	11.9		13.3		24.9	25.1	38		39.5	189 to 191	13.4	31.1	13.7	20.3			11.3	inhibition at 10 µM [1, 20]: 14.6%; inhibition at 10 µM ([1]; MDA-MB-231, read-out: Growth inhibition %): 15.5%; inhibition at 10 µM [1, 17]: 12.7%; inhibition at 10 µM ([1]; SK-OV-3 (Ovarian Cancer), 10 uM single dose, read-out: Growth inhibition %): 11.9%
O=C1Nc2ccc(F)cc2/C1=C\c1ccc(OCC(=O)c2ccccc2)cc1 [Compound 6d, (E/Z)-5-Fluoro-3-{4-[2-oxo-2-phenylethoxy]benzylidene}indolin-2-one]	33.6		28.3	11.7	14.3	10.3	11.2	23	30.6	23.1	17.7	32.3	223 to 226	32.2	33.7	14.8		12.1	12.4	14.6	inhibition at 10 µM ([1]; BT-549 (Breast Cancer), 10 uM single dose, read-out: Growth inhibition %): 10.9%; inhibition at 10 µM ([1]; CCRF-CEM (Leukemia), 10 uM single dose, read-out: Growth inhibition %): 15.6%; inhibition at 10 µM ([1]; EKVX (Non-Small Cell Lung Cancer), 10 uM single dose, read-out: Growth inhibition %): 18.9%; inhibition at 10 µM ([1]; HL-60(TB) (Leukemia), 10 uM single dose, read-out: Growth inhibition %): 16.9%; inhibition at 10 µM [1, 20]: 10.5%; inhibition at 10 µM ([1]; KM12 (Colon Cancer), 10 uM single dose, read-out: Growth inhibition %): 15.9%; inhibition at 10 µM ([1]; RPMI-8226 (Leukemia), 10 uM single dose, read-out: Growth inhibition %): 22.1%; inhibition at 10 µM [1, 19]: 14.3%; inhibition at 10 µM ([1]; SNB-19 (CNS Cancer), 10 uM single dose, read-out: Growth inhibition %): 14.9%; inhibition at 10 µM ([1]; U-251, U251 (CNS Cancer), 10 uM single dose, read-out: Growth inhibition %): 16.8%; inhibition at 10 µM (SR): 25.2%; inhibition at 10 µM (T-47D): 14.3%
